Results reported in article PMC7763995 (Molecules, 2020).
Like-named read-outs stand apart in the source and are kept apart here.

Assays:
[1] = ABTS radical cation scavenging activity assay; conditions: for IC50 / ABTS^•+-Scavenging Activity, TEAC: 1 h incubation; for ABTS^•+-Scavenging Activity, TEAC: ratio of slopes test compound/Trolox
Procedure: Radical scavenging activity of the compounds was assessed using the ABTS radical decolorization assay with some modifications. ABTS was purchased from Tokyo Chemical Industry Co., Ltd. (Tokyo, Japan), potassium persulfate (dipotassium peroxodisulfate), Trolox (6-hydroxy-2,5,7,8-tetramethychroman-2-carboxylic acid), and HPLC-grade ethanol were obtained from Sigma-Aldrich. Aqueous solutions were prepared using deionized water.
The solution of cation radical ABTS^•+ was produced by incubation of ABTS with potassium persulfate in deionized water for 12–16 h at room temperature in the dark. Radical scavenging capacity of the compounds was analyzed by mixing 10 μL of compound with 240 μL of ABTS^•+ working solution in ethanol (100 μM final concentration). The reaction was monitored for an hour with an interval of 5–10 min. Data are given for 1 h of incubation of compounds with ABTS^•+. The reduction in absorbance was measured spectrophotometrically at 734 nm using a xMark microplate UV/VIS microplate spectrophotometer (Bio-Rad, Hercules, CA, USA).
Ethanol blanks were run in each assay. Values were obtained from three replicates of each sample and three independent experiments. Standard antioxidants Trolox and BHT were used as reference compounds.
Antioxidant capacity as Trolox equivalent (TEAC) values was determined as the ratio between the slopes obtained from the linear correlation of the ABTS radical absorbance with the concentrations of tested compounds and Trolox. […] The compounds were tested in the concentration range of 0.1–100 µM.

EeAChE PAS = target: T1, EeAChE PAS (Electrophorus electricus, UniProt O42275); type: binding; conditions: compound concentration 20 µM
T1 construct: Electric eel AChE (EeAChE, type VI-S, lyophilized powder); purchased Sigma-Aldrich type VI-S; host or cells: electric eel
Procedure: Electric eel AChE (EeAChE, type VI-S, lyophilized powder, Sigma-Aldrich, Saint Louis, MO, USA) was used owing to its high degree of purification, high activity, and lower cost compared to human AChE.
The blank contained propidium iodide of the same concentration in 1 mM Tris-HCl buffer pH 8.0. The measurements were carried out in triplicate on a FLUOStar Optima microplate reader, and the results were calculated by formula (1):% Displacement = 100 − (IFAChE+ Propidium + inhibitor / IFAChE + Propidium) × 100(1) where IFAChE + Propidium is the fluorescence intensity of the propidium associated with AChE in the absence of the test compound (taken as 100%), and IFAChE + Propidium + inhibitor is the fluorescence intensity of the propidium associated with AChE in the presence of the test compound.

Porcine liver CES = experiment: In vitro CES inhibition, 4-NPA substrate; type: biochemical; conditions: compound concentration 20 µM; n.a. = not active
Procedure: (§1) Measurements were performed with a FLUOStar Optima microplate reader (BMG Labtech, Ortenberg, Germany). Compounds were dissolved in DMSO, the incubation mixture contained 2% solvent.

mouse brain homogenate [2] = experiment: Luminol chemiluminescence assay in mouse brain homogenate (TBHP-initiated); conditions: compound concentration 20 µM; mice brain homogenate
Procedure: (§2) The work was carried out in accordance with the EU Directive 2010/63/EU. Hybrid BDF1 mice (about 6 months old) were sacrificed by decapitation. Each brain was rapidly excised, frozen in liquid nitrogen, and stored at −80°C until use. The brains were thawed and homogenized using a Wisd WiseTis HG-15D homogenizer for 2 min in a buffer (0.01 M PBS, pH 7.4 or 0.1 M Tris-HCl, pH 7.4). Protein concentrations were determined by the Lowry method.
Luminol-dependent chemiluminescence produced by mouse brain homogenates was measured using a 1250 Luminometer (LKB Wallac, Turku, Finland) according to the assay by Di Meo et al. with minor modifications. The reaction mixture consisted of mouse brain homogenate (protein concentration 0.1 mg/mL) in 0.1 M Tris-HCl (Sigma-Aldrich), pH 7.4, luminol (Sigma-Aldrich) (0.05 mM), TBHP (Sigma-Aldrich) (0.073 M) and tested compounds at a concentration of 20 μM. This was placed in a light-proof luminometer chamber and the background reading was recorded. All measurements were carried out at 37°C. The gain control was set to give a reading of 10 mV using a built-in standard. The free radical content in mouse brain homogenate was evaluated by the change in the light sum (the area under the kinetic curve of luminescence intensity for the entire luminescence time). All compounds were examined at least in triplicate. The effects of tested compounds were measured as the percentage decrease in the light sum relative to the control (a sample with no compound added).

[3] = FRAP (ferric reducing antioxidant power) assay; conditions: 20 µM, 1 h incubation; ratio of concentrations of Trolox and test compound with same effect
Procedure: The FRAP (ferric reducing antioxidant power) assay proposed by Benzie and Strain [80, 81] was modified to be performed in 96-well microplates. The FRAP reagent contained 2.5 mL of 10 mM TPTZ (2,4,6-tris(2-pyridyl)-s-triazine (Sigma-Aldrich) solution in 40 mM HCl, 2.5 mL of 20 mM FeCl3 (Sigma-Aldrich) in distilled water and 25 mL of 0.3 M acetate buffer (pH 3.6). In 96-well microplates, 10 µL aliquots of the substance under investigation (compounds 7, 8 or reference substance) dissolved in DMSO (0.5 mM) were placed in quadruplicate. The FRAP reagent (240 µL) freshly prepared and warmed to 37°C was added to three of these samples, while the same volume of acetate buffer was added to the fourth one (blank). Consequently, the concentration of the substance in a plate was 20 µM. The absorbance at 600 nm was monitored spectrophotometrically with a FLUOStar OPTIMA microplate reader at 37°C for an hour with an interval of 5–10 min. Data in Table 2 are given for 1 h of incubation of compounds with FRAP reagent. The absorbances of the blanks and those of the mixture of 240 µL FRAP reagent plus 10 µL DMSO were subtracted from the absorbances of the samples at each time interval to calculate the absorbance change. Standard antioxidants Trolox and BHT dissolved in DMSO and analyzed as described above were used as reference compounds. A calibration curve with linear formula y = 0.03x (R^2 = 0.998, p < 0.0001) was obtained for Trolox solution in DMSO in the range 2.5–100 µM and the results were expressed as FRAP units (the values calculated as the ratio of the concentrations of Trolox and the test compound resulting in the same effect.)

mouse brain homogenate [4] = experiment: TBARS assay, spontaneous lipid peroxidation in mouse brain homogenate; conditions: read-out: Inhibition of Spontaneous Lipid Peroxidation in Mice Brain Homogenate, TBARS Assay, IC50
Procedure: as §2
The procedure was performed in accordance with the method of Ohkawa et al. with minor modifications. Briefly, mouse brain homogenate (protein concentration 1 mg/mL) in PBS (0.1 M, pH 7.4) was incubated for 30 min at 37°C with tested conjugates, and the reaction was terminated by addition of 0.4 mL of 17% (w/v) trichloroacetic acid (Sigma-Aldrich). Following centrifugation for 20 min at 1300× g, 0.5 mL of 0.8% (w/v) of TBA (Sigma-Aldrich) was added to 1 mL of supernatant, heated for 30 min at 95°C and then cooled to RT. The optical density of the TBARS, which corresponds to the produced MDA, was measured at 532 nm against a blank using an Agilent Cary 60 UV-Vis spectrophotometer (Agilent, Santa Clara, CA, USA). The MDA concentration was calculated using an extinction coefficient of 1.56 × 10^5 M^−1cm^−1. Trolox and BHT were used as reference antioxidants. Compounds were dissolved in DMSO (Sigma-Aldrich) and tested in a concentration range 0.01–100 μM. All compounds were examined at least in triplicate.

Equine serum BChE = target: T2, Equine serum BChE (Equus caballus, UniProt P81908); experiment: biochemical; conditions: for Selectivity for BChE: IC50 AChE / IC50 BChE
T2 construct: equine serum BChE; purchased Sigma-Aldrich; host or cells: equine serum
Procedure: as §1

Human erythrocyte AChE = target: T3, Human erythrocyte AChE (Homo sapiens, UniProt P22303); experiment: biochemical
T3 construct: AChE from human erythrocytes was used; purchased Sigma-Aldrich; host or cells: human erythrocytes
Procedure: as §1

[5] = mean ± SEM, n = 3, n.a. = not active, read-out: Equine Serum BChE, IC50
[6] = mean ± SEM, n = 3, n.a. = not active, read-out: Human Erythrocyte AChE, IC50

T1 sequence (O42275 24-633): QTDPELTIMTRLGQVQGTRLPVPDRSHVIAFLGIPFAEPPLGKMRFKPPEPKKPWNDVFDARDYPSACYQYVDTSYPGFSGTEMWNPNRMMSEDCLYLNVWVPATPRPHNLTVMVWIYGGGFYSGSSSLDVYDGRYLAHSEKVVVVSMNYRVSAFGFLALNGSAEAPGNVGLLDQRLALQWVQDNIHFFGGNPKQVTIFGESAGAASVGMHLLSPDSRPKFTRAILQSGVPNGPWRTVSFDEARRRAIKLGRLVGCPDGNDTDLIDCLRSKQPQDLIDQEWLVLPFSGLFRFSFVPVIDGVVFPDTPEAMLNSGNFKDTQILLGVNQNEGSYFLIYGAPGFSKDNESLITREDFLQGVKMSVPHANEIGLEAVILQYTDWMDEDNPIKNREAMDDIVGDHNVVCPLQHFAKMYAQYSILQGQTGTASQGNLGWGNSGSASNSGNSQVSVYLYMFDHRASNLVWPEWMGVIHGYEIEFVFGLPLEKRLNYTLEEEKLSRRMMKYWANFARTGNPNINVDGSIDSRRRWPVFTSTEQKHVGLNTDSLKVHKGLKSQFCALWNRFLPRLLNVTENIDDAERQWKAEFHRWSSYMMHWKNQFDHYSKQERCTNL
T2 sequence (P81908 whole entry): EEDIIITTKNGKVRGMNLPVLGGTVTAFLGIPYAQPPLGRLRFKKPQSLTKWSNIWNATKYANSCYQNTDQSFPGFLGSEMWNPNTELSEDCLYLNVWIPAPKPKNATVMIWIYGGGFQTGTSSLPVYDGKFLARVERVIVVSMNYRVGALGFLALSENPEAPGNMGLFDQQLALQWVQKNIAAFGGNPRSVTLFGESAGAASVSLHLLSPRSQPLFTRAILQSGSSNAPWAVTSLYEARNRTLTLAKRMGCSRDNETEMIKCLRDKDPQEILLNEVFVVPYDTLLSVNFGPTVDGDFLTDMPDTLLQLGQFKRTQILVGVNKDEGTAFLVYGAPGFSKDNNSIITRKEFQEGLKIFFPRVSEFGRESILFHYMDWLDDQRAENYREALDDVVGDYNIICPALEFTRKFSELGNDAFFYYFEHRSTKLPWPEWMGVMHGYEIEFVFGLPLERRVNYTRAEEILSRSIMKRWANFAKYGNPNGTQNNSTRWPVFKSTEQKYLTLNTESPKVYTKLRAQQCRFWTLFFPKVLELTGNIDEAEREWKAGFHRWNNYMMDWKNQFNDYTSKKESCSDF
T3 sequence (P22303 32-617 isoform P22303-2 limits assumed): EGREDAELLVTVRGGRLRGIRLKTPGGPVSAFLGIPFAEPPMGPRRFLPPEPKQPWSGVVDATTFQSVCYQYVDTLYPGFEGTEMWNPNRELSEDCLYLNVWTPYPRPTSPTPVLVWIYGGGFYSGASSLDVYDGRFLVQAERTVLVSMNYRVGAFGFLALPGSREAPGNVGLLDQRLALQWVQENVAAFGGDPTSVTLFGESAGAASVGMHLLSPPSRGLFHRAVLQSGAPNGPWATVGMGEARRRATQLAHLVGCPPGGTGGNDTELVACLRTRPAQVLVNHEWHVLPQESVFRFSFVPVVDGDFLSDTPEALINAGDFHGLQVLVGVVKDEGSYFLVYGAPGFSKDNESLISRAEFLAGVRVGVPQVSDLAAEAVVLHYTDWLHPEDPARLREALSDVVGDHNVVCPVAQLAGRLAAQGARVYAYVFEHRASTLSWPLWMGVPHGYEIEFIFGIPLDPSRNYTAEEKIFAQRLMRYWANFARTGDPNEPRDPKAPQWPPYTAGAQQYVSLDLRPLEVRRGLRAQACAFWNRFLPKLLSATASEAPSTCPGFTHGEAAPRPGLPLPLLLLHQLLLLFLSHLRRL

SMILES	Time of maximum binding of the ABTS radical [1]	IC50 [1]	ABTS^•+-Scavenging Activity, TEAC [1]	Displacement of Propidium from EeAChE PAS (%) (EeAChE PAS)	Porcine Liver CES, (%) inhibition (Porcine liver CES)	Radical Scavenging Capacity in Luminol Chemiluminescence Assay, Luminescence Inhibition, % (mouse brain homogenate [2])	Ferric Reducing Antioxidant Power, FRAP Units [3]	IC50 (mouse brain homogenate [4])	IC50 (Equine serum BChE)	IC50 (Human erythrocyte AChE)	Selectivity for BChE (Equine serum BChE)	IC50 (Equine serum BChE; [5])	IC50 (Human erythrocyte AChE; [6])
CC(C)(C)c1cc(CNCCNc2c3c(nc4ccccc24)CCCCC3)cc(C(C)(C)C)c1O [Compound 8c, 2,6-Di-tert-butyl-4-{[2-(7,8,9,10-tetrahydro-6H-cyclohepta[b]quinolin-11-ylamino)-ethylamino]-methyl}-phenol]	5 min	14.1 ± 0.8 µM	1.35 ± 0.04	13.6 ± 1.2%	26.0 ± 1.9%	91.0 ± 0.6%	0.80 ± 0.06	9.38 ± 0.12 µM	0.084 ± 0.008 µM	1.9 ± 0.16 µM	–	–	–
Cc1c(C)c2c(c(C)c1O)CCC(C)(C(=O)O)O2 (stereo not shown) [Trolox, 6-hydroxy-2,5,7,8-tetramethychroman-2-carboxylic acid, reference compound]	–	20.1 ± 1.2 µM	1.0	–	–	88.0 ± 1.0%	1.0	91.8 ± 0.3 µM	–	–	–	–	–
CC(C)(C)c1cc(CNCCNc2c3c(nc4ccccc24)CCC3)cc(C(C)(C)C)c1O [Compound 8a, 2,6-Di-tert-butyl-4-{[2-(2,3-dihydro-1H-cyclopenta[b]quinolin-9-ylamino)-ethylamino]-methyl}-phenol]	5 min	12.7 ± 1.1 µM	1.39 ± 0.05	16.4 ± 1.4%	19.6 ± 1.3%	95.0 ± 0.1%	0.77 ± 0.02	6.23 ± 0.33 µM	0.652 ± 0.005 µM	3.5 ± 0.33 µM	5.4	–	–
CC(C)(C)c1cc(C=NCCNc2c3c(nc4ccccc24)CCCC3)cc(C(C)(C)C)c1O [Compound 7b, 2,6-Di-tert-butyl-4-{[2-(1,2,3,4-tetrahydro-acridin-9-ylamino)-ethylimino]-methyl}-phenol]	–	17.1 ± 1.4 µM	1.13 ± 0.05	18.2 ± 1.6%	28.6 ± 1.6%	95.0 ± 0.2%	0.58 ± 0.03	7.21 ± 0.62 µM	–	–	3.7	1.61 ± 0.04 µM	5.98 ± 0.13 µM
CC(C)(C)c1cc(C=NCCNc2c3c(nc4ccccc24)CCCCCC3)cc(C(C)(C)C)c1O [Compound 7d, 2,6-Di-tert-butyl-4-{[2-(6,7,8,9,10,11-hexahydro-cycloocta[b]quinolin-12-ylamino)-ethylimino]-methyl}-phenol]	–	17.8 ± 1.7 µM	1.12 ± 0.05	17.1 ± 1.8%	20.4 ± 1.6%	95.0 ± 0.2%	0.57 ± 0.02	14.8 ± 1.3 µM	–	–	10.5	4.27 ± 0.26 µM	45 ± 5.7 µM
Cc1cc(C(C)(C)C)c(O)c(C(C)(C)C)c1 [BHT, butylated hydroxytoluene, reference compound]	–	22.4 ± 1.4 µM	0.98 ± 0.03	–	–	72.0 ± 2.6%	1.76 ± 0.07	6.89 ± 0.26 µM	–	–	–	–	–
O=[N+]([O-])c1ccc(OP(=O)(O)Oc2ccc([N+](=O)[O-])cc2)cc1 [BNPP, bis-4-nitrophenyl phosphate, reference compound]	–	–	–	–	92.1 ± 1.8 ^3%	–	–	–	–	–	–	–	–
